From PubChem BioAssay (NCI) come the findings set out here.

Holding throughout (experiment): growth of human tumour cells (NCI), 48 h
Assay [1] concerns MOLT-4 leukemia.
In assay [2] the test system is CAKI-1 renal.
Assay [3] deals with OVCAR-8 ovarian.
For assay [4], the system named is SR leukemia.
Assay [5] concerns HCT-116 colon.
In assay [6] the test system is MDA-MB-435.
Assay [7] deals with RXF 393 renal.
The subject of assay [8] is K-562 leukemia.
In assay [9] the test system is NCI-H522 lung.
The test system of assay [10] is MALME-3M melanoma.

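Each compound was tested at five concentrations against cells in 96-well plates for 48 hours. At the GI50, growth is halved. TGI marks complete inhibition of growth.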

In the case of `CN(N=O)C(=O)Nc1ccc(C(=O)O)cc1`, the TGI in assay [1], in assay [2], in assay [3], in assay [4], in assay [5] and in assay [6] was > 100 µM in each case. Besides, the TGI in assay [7], in assay [8] and in assay [9] was > 100 µM in each case.
With `CNC1=CC(=O)C2=C(C1=O)C1C3=C(C(=O)C(Br)=C(OC)C3=O)C2c2ccccc21` (stereo not given), the GI50 in [1] is 1.12 µM; in assay [2] it was 1.89 µM; in assay [3], 3.87 µM; in [10] it was 6.84 µM; in assay [5] it was 1.87 µM; in assay [6] it was 6.92 µM. Further, the GI50 in assay [7] is 1.49 µM; in [8] it was 1.35 µM; in assay [9], 1.3 µM. The TGI in assay [1] was > 50 µM; in assay [2], 4.83 µM; in assay [3], > 50 µM; in assay [10], 17.9 µM; in [5], 5.7 µM; in [6], 17.1 µM. Besides, the TGI was determined as 2.99 µM in [7], 3.01 µM in [8] and 2.98 µM in [9].
Take `OCC#CCCCCOCC#Cc1ccccc1C#CCOCCCCC#CCO`: the GI50 in assay [1] was 14.8 µM; in [2], 27.2 µM; in assay [3] it was 52.3 µM; in assay [4], 43.6 µM; in assay [5], 22.5 µM; in [6] it was 20 µM. Further, the GI50 in [7] is 31.8 µM; in assay [8] it was 22.3 µM; in assay [9] it was 71.3 µM. For the same molecule, the TGI in assay [1] is > 100 µM; in [2], 64.8 µM; in assay [3] it was > 100 µM; in assay [4], > 100 µM; in [5], > 100 µM; in [6] it was 45.9 µM. In addition, the values for the TGI in [7], in assay [8] and in assay [9] were 96.9 µM, 65.6 µM and > 100 µM, respectively.
For `CNC(C)[C@H]1CCC2C3CCC4C[C@@H](N(C)C(=O)c5ccccc5)CC[C@]4(C)C3CC[C@@]21C` (stereo not given in full), the GI50 in assay [1] is 1.02 µM; in assay [2], 1.54 µM; in assay [3] it was 3.44 µM; in assay [10], 1.6 µM; in [5], 0.409 µM; in assay [6] it was 0.632 µM. The GI50 in [7] was 1.73 µM; in assay [8], 0.351 µM; in [9], 2.32 µM. Besides, the TGI stood at 3.46 µM in assay [1]; 5.13 µM in assay [2]; 23.2 µM in assay [3]; 3.99 µM in [10]; 1.73 µM in assay [5]; 2.42 µM in assay [6]. Besides, the TGI came out at 4.26 µM in assay [7], 2.46 µM in assay [8] and 8.5 µM in assay [9].
As for `C/C(=C1/N=C(c2ccccc2)OC1=O)c1ccccc1`, the TGI in [1], in [2], in assay [3], in assay [4], in [10] and in assay [5] was > 100 µM in each case. In addition, the TGI in [6], in assay [8] and in assay [9] was > 100 µM in each case.
Regarding `COc1cc2oc(-c3cccc(C(=O)Nc4ccc(C)cc4)c3)cc(=O)c2c(OC)c1OC`, the GI50 in [1] was 5.8 µM; in assay [2], 0.315 µM; in assay [3], 2.9 µM; in assay [4], 2.53 µM; in assay [5], 2.21 µM; in assay [6], 2.26 µM. The GI50 in assay [7] was 0.775 µM; in assay [8], 3.4 µM; in assay [9] it was 2.67 µM. Besides, the TGI in assay [1] is > 100 µM; in assay [2] it was 3.22 µM; in [3], > 100 µM; in assay [4] it was 40.6 µM; in assay [5] it was 21.8 µM; in assay [6] it was 7.64 µM. Moreover, the TGI in assay [7] is 5.91 µM; in assay [8], > 100 µM; in [9] it was 9.31 µM.
Take `Cc1cc(S(=O)(=O)Nc2nc3ccccc3[nH]2)c(SCc2ccccc2)cc1Cl`: the GI50 in [1] was 36.4 µM; in assay [2], 2.1 µM; in [3], 37.5 µM; in [4] it was 26.1 µM; in assay [5], 51.6 µM; in [6], > 100 µM. Further, the results for the GI50 in assay [7], in assay [8] and in assay [9] were > 100 µM, 66.3 µM and > 100 µM, respectively. Besides, the TGI was 85.6 µM in assay [1]; 6.1 µM in assay [2]; > 100 µM in assay [3]; > 100 µM in assay [4]; > 100 µM in assay [5]; > 100 µM in assay [6]. Moreover, the TGI in assay [7], in assay [8] and in assay [9] was > 100 µM in each case.
On to `Cc1ccc(S(=O)(=O)N[C@@H](Cc2ccccc2)C(=O)CCl)cc1`, for which the GI50 in [1] is 1.99 µM; in assay [2], 16.7 µM; in assay [3], 17.8 µM; in assay [10], 18.1 µM; in assay [5] it was 12.9 µM; in [7] it was 14.6 µM. For the same molecule, the GI50 in [8] is 4.26 µM; in assay [9] it was 11.5 µM. The TGI in [1] is > 100 µM; in [2], 34.7 µM; in assay [3], > 100 µM; in assay [10], 40 µM; in assay [5], > 100 µM; in assay [6], 30.7 µM. Moreover, the figures for the TGI in [7], in assay [8] and in [9] were 37.2 µM, 31.4 µM and 37.1 µM, respectively.
Turning to `COc1ccc(C2CC(c3cccc(OC)c3)=NN2C(=O)c2cc(OC)c(OC)c(OC)c2)cc1` (stereo not given), the GI50 is 2.14 µM in assay [1]; 1.22 µM in assay [2]; 5.83 µM in assay [3]; 0.359 µM in assay [4]; 1.43 µM in [5]; 0.307 µM in assay [6]. The GI50 in assay [8] was 0.431 µM; in assay [9], 2.66 µM. Further, the TGI in assay [1] is > 100 µM; in assay [2], > 100 µM; in assay [3], > 100 µM; in assay [4], > 100 µM; in assay [5], > 100 µM; in assay [6] it was 1.71 µM. Also, the TGI in assay [8] was > 20.5 µM; in assay [9], > 22.1 µM.
Turning to `C=C(CN(C)Cc1ccccc1)c1ccc(C(=O)Nc2ccccc2N)cc1`, the GI50 in assay [2] was 3.43 µM; in assay [3] it was 1.56 µM; in [4] it was 2.87 µM; in [5] it was 8.6 µM; in assay [6], 1.42 µM; in [8], 3.22 µM. Besides, the TGI in [2] is 14.8 µM; in assay [3], 14.4 µM; in assay [4], > 50 µM; in assay [5], 21.9 µM; in [6], 5.7 µM; in [8], > 50 µM.
With `CCOc1ccc2c(c1)C(=O)c1c-2n(CCCN)c(=O)c2cc([N+](=O)[O-])ccc12`, the GI50 in assay [2] was 0.0112 µM; in assay [3], 0.0168 µM; in [4] it was < 0.01 µM; in [10] it was 0.574 µM; in [5], 0.0638 µM; in assay [6], 0.294 µM. Further, the GI50 in [7] is 0.499 µM; in assay [9] it was 0.0134 µM. The TGI in assay [2] is 1.14 µM; in assay [3], 0.147 µM; in assay [4] it was 2.17 µM; in assay [10] it was 2.37 µM; in assay [5] it was 0.543 µM; in assay [6], 1.95 µM. In addition, the results for the TGI in assay [7] and in [9] were 1.96 µM and 1.52 µM, respectively.
As for `Cc1cccc2c(N=Nc3ccccc3[N+](=O)[O-])c(O)[nH]c12`, the TGI in assay [1] is > 100 µM; in [2] it was 16.3 µM; in assay [3] it was > 38.2 µM; in [4] it was 38.7 µM; in assay [5] it was 34 µM; in [6], > 100 µM. The TGI is 16.6 µM in assay [7], > 100 µM in [8] and 2.85 µM in assay [9].
Consider `CCCCCCCC(=O)NS(=O)(=O)c1ccccc1`, for which the TGI in [1], in assay [2], in assay [3], in assay [4], in [10] and in assay [5] was > 100 µM in each case. For the same molecule, the TGI in [6], in [8] and in [9] was > 100 µM in each case.
Turning to `COc1cc2c(c(OC)c1OC)C(=O)c1c-2n(CCCN=[N+]=[N-])c(=O)c2cc([N+](=O)[O-])ccc12`, the GI50 in assay [1] is > 100 µM; in assay [2], 60.6 µM; in assay [3], 72.3 µM; in [4], 16.3 µM; in assay [5] it was 36.1 µM; in [6] it was > 100 µM. For the same molecule, the GI50 is 19.1 µM in assay [7], > 100 µM in assay [8] and 16.9 µM in assay [9]. Besides, the TGI is > 100 µM in assay [1]; > 100 µM in [2]; > 100 µM in assay [3]; 41.9 µM in [4]; > 100 µM in assay [5]; > 100 µM in assay [6]. Moreover, the values for the TGI in [7], in assay [8] and in assay [9] were 66.1 µM, > 100 µM and 79.3 µM, respectively.
